The results in this text go back to patent publication US20170320848A1, “COMPOUNDS FOR USE IN ANTHELMINTHIC TREATMENT” (Bayer Animal Health GMBH, priority 2014, published 2017).

Read-outs that look alike come from different tables or passages of the source. Bounds are passed on as bounds.

For data set [1], the system named is Nippostrongylus brasiliensis. Description: Nippostrongylus brasiliensis assay (NIPOBR), acetylcholine esterase readout. Format: cell-based. The conditions noted are these: read-out: activity (reduction of AChE compared to negative control). How it is done: Nippostrongylus Brasiliensis—Assay (NIPOBR)
Adult Nippostrongylus brasiliensis were washed with saline buffer containing 100 U/ml penicillin, 0.1 mg/ml streptomycin and 2.5 μg/ml amphotericin B. Test compounds were dissolved in DMSO and worms were incubated in medium in a final concentration of 10 μg/ml (10 ppm) respectively 1 μg/ml (1 ppm). An aliquot of the medium was used to determine the acetylcholine esterase activity in comparison to a negative control. The principle of measuring acetylcholine esterase as readout for anthelmintic activity was described in Rapson et al (1986) and Rapson et al (1987).

Data set [2] concerns Haemonchus contortus. Description: Haemonchus contortus assay (HAEMCO), larval mortality. Type of data set: cell-based. The conditions noted are these: Haemonchus contortus, 120 h; application rate 20 ppm, after 5 days; read-out: activity (percentage of larval mortality). How it is done:
Haemonchus Contortus—Assay (HAEMCO)
(§1) Solvent: dimethyl sulfoxide
(§2) To produce a suitable preparation, 10 mg of active compound are dissolved in 0.5 ml solvent, and the concentrate is diluted with “Ringer's solution” to the desired concentration.
Approximately 40 larvae of the red stomach worm (Haemonchus contortus) are transferred into a test tube containing compound solution.
After 5 days percentage of larval mortality are recorded. 100% efficacy means all larvae are killed, 0% efficacy means no larvae are killed.

For data set [3], the system named is Cooperia curticei. The data set is described as follows: Cooperia curticei assay (COOPCU), larval mortality. Type of data set: cell-based. The conditions noted are these: Cooperia curticei, 120 h; application rate 20 ppm, after 5 days; read-out: activity (percentage of larval mortality). How it is done:
Cooperia Curticei—Assay (COOPCU)
as §1, §2
Approximately 40 nematode larvae (Cooperia curticei) are transferred into a test tube containing the compound solution.
After 5 days percentage of larval mortality is recorded. 100% efficacy means all larvae are killed; 0% efficacy means no larvae are killed.

Data set [4] can be described thus: Measurement of LogP values by HPLC on reversed phase columns (EEC directive 79/831 Annex V.A8). The conditions noted are these: acidic range, 0.1% formic acid in water and acetonitrile as eluent; for chromatographic logP: read-out: logP (HCOOH)[a]. Format: physicochemical.
For data set [5], the system named is Meloidogyne incognita. Description: Meloidogyne incognita assay (MELGIN), gall formation on salad seedlings. Type of data set: in vivo. The conditions noted are these: application rate 20 ppm, after 14 days. How it is done:
Meloidogyne Incognita—Assay (MELGIN)
Solvent: 125.0 parts by weight of acetone
To produce a suitable preparation, 1 part by weight of active compound is mixed with the stated amount of solvent, and the concentrate is diluted with water to the desired concentration.
Vessels are filled with sand, a solution of the active ingredient, a suspension containing eggs and larvae of the southern root-knot nematode (Meloidogyne incognita) and salad seeds. The salad seeds germinate and the seedlings grow. Galls develop in the roots.
After 14 days the nematicidal activity is determined on the basis of the percentage of gall formation. 100% means no galls were found and 0% means the number of galls found on the roots of the treated plants was equal to that in untreated control plants.

For orientation: mortality means the share of the test organisms that died. On to `O=C(NCC(F)(F)c1ccc(-c2ccc(F)cc2)cc1C(F)(F)F)c1ccccc1C(F)(F)F` [Example 12, N-(2,2-Difluoro-2-(4′-fluoro-3-(trifluoromethyl)-[1,1′-biphenyl]-4-yl)ethyl)-2-(trifluoromethyl)benzamide], for which, in data set [1] (10 μg/ml, adult worms), the inhibition at 10 µg/mL is ≥ 75%. In addition, the mortality at 20 ppm in data set [2] and in data set [3] was 100% each time.
As for `O=C(NCC(F)(F)c1ccc(-c2ccc(F)cc2)cc1Cl)c1ccccc1C(F)(F)F` [Example 3, N-[2-[2-chloro-4-(4-fluorophenyl)phenyl]-2,2-difluoro-ethyl]-2-(trifluoromethyl)benzamide], the inhibition at 10 µg/mL in data set [1] (10 μg/ml, adult worms) was ≥ 75%. For the same compound, in data set [2], the mortality at 20 ppm worked out at 100%. The mortality at 20 ppm in data set [3] stood at 100%. Moreover, in data set [4], the “logP (HCOOH)[a]” value turned out to be 4.10 and the chromatographic logP is 4.14.
For `N#Cc1ccc(-c2ccc(C(F)(F)CNC(=O)c3ccccc3C(F)(F)F)c(Cl)c2)cc1F` [Example 25], the “nematicidal activity (percentage of gall formation)” value in data set [5] is listed as 100%. Also, the inhibition at 10 µg/mL in data set [1] was ≥ 75%. In addition, the mortality at 20 ppm in data set [2] and in data set [3] was 100% throughout. Besides, in data set [4], the chromatographic logP was 3.77.
Consider `O=C(NCC(F)(F)c1ccc(-c2ccc(Cl)cc2)cc1F)c1ccccc1C(F)(F)F` [Example 5], for which the inhibition at 10 µg/mL in data set [1] was ≥ 75%. Also, the mortality at 20 ppm is 80% in data set [2] and 100% in data set [3].
`O=C(NCC(F)(F)c1ccc(-c2ccc(F)c(F)c2)cc1Cl)c1ccccc1C(F)(F)F` [Example 33]: the inhibition at 10 µg/mL in data set [1] was ≥ 75%. Besides, the mortality at 20 ppm in data set [2] and in data set [3] was 100% throughout. In addition, the chromatographic logP in data set [4] came to 4.26.
Take `O=C(NCC(F)(F)c1ccc(-c2ccc(F)cc2)cc1F)c1ccccc1C(F)(F)F` [Example 7, N-(2-(3,4′-Difluoro-[1,1′-biphenyl]-4-yl)-2,2-difluoroethyl)-2-(trifluoromethyl)benzamide]: the inhibition at 10 µg/mL in data set [1] (10 μg/ml, adult worms) is ≥ 75%. The mortality at 20 ppm is 90% in data set [2] and 100% in data set [3].
In the case of `O=C(NCC(F)(F)c1ccc(-c2ccc(C(F)(F)F)c(F)c2)cc1Cl)c1ccccc1C(F)(F)F` [Example 22], the inhibition at 10 µg/mL in data set [1] was ≥ 75%. Further, the mortality at 20 ppm in data set [2] stood at 90%; in data set [3] it was 100%. The chromatographic logP in data set [4] was determined as 4.62.
For `O=C(NCC(F)(F)c1ccc(-c2ccc(F)cc2)cc1Cl)c1cccnc1C(F)(F)F` [Example 9], the “nematicidal activity (percentage of gall formation)” value in data set [5] was found to be 100%. For the same compound, the mortality at 20 ppm in data set [2] and in data set [3] was 100% throughout. Besides, in data set [4] (reversed phase HPLC columns), the chromatographic logP came out at 3.68.
`O=C(NCC(F)(F)c1ccc(-c2ccc(Cl)cc2)cc1C(F)(F)F)c1ccccc1C(F)(F)F` [Example 13]: in data set [1] (10 μg/ml, adult worms), the inhibition at 10 µg/mL was ≥ 75%. Moreover, the mortality at 20 ppm was 90% in data set [2] and 100% in data set [3].
Take `O=C(NCC(F)(F)c1ccc(-c2ccc(F)cc2F)cc1Cl)c1ccccc1C(F)(F)F` [Example 36]: the inhibition at 10 µg/mL in data set [1] is ≥ 75%. Moreover, the mortality at 20 ppm in data set [2] and in data set [3] was 100% throughout. For the same compound, the chromatographic logP in data set [4] is 4.22.
Take `O=C(NCC(F)(F)c1ccc(-c2ccc(F)c(C(F)(F)F)c2)cc1Cl)c1ccccc1C(F)(F)F` [Example 21]: in data set [1], the inhibition at 10 µg/mL was ≥ 75%. For the same compound, the mortality at 20 ppm is 90% in data set [2] and 100% in data set [3]. Moreover, the chromatographic logP in data set [4] was determined as 4.55.
As for `N#Cc1ccc(-c2ccc(C(F)(F)CNC(=O)c3ccccc3C(F)(F)F)c(Cl)c2)cc1` [Example 27], the “nematicidal activity (percentage of gall formation)” value in data set [5] stood at 100%. For the same compound, the inhibition at 10 µg/mL in data set [1] was ≥ 75%. Besides, the mortality at 20 ppm in data set [2] and in data set [3] was 100% in each case. In data set [4], the chromatographic logP turned out to be 3.62.
With `O=C(NCC(F)(F)c1ccc(-c2cc(F)cc(F)c2)cc1Cl)c1ccccc1C(F)(F)F` [Example 35], the “nematicidal activity (percentage of gall formation)” value in data set [5] was 100%. Also, the inhibition at 10 µg/mL in data set [1] was ≥ 75%. Moreover, the mortality at 20 ppm in data set [2] and in data set [3] was 100% in each case. Also, in data set [4], the chromatographic logP is 4.3.
As to `O=C(NCC(F)(F)c1ccc(-c2cc(F)c(F)c(F)c2)cc1Cl)c1ccccc1C(F)(F)F` [Example 32], the “nematicidal activity (percentage of gall formation)” value in data set [5] is recorded as 100%. Moreover, the inhibition at 10 µg/mL in data set [1] is ≥ 75%. Besides, the mortality at 20 ppm in data set [2] and in data set [3] was 100% in each case. Moreover, the chromatographic logP in data set [4] was 4.44.
As to `O=C(NCC(F)(F)c1ccc(-c2ccc(F)cc2)cc1C(F)(F)F)c1cccnc1C(F)(F)F` [Example 17, N-(2,2-Difluoro-2-(4′-fluoro-3-(trifluoromethyl)-[1,1′-biphenyl]-4-yl)ethyl)-2-(trifluoromethyl)-nicotinamide], the “nematicidal activity (percentage of gall formation)” value in data set [5] was determined as 90%. Besides, the inhibition at 10 µg/mL in data set [1] was ≥ 75%. Besides, the mortality at 20 ppm in data set [2] and in data set [3] was 100% in each case.
With `Cc1cc(-c2ccc(F)cc2)ccc1C(F)(F)CNC(=O)c1ccccc1C(F)(F)F` [Example 38], the “nematicidal activity (percentage of gall formation)” value in data set [5] is recorded as 100%. Besides, in data set [1], the inhibition at 10 µg/mL is ≥ 75%. For the same compound, the mortality at 20 ppm in data set [2] and in data set [3] was 100% throughout. Moreover, in data set [4], the chromatographic logP is 4.16.
For `CSc1ccc(-c2ccc(C(F)(F)CNC(=O)c3ccccc3C(F)(F)F)c(Cl)c2)cc1` [Example 26], the mortality at 20 ppm in data set [2] and in data set [3] was 100% in each case. In data set [4] (reversed phase HPLC columns), the chromatographic logP turned out to be 4.43.
As to `O=C(NCC(F)(F)c1ccc(-c2ccc(SC(F)(F)F)cc2)cc1Cl)c1ccccc1C(F)(F)F` [Example 23], the inhibition at 10 µg/mL in data set [1] was ≥ 75%. The mortality at 20 ppm in data set [2] and in data set [3] was 100% each time. For the same compound, in data set [4], the chromatographic logP is 4.98.
Turning to `COc1cc(-c2ccc(F)cc2)ccc1C(F)(F)CNC(=O)c1ccccc1C(F)(F)F` [Example 37], the inhibition at 10 µg/mL in data set [1] was ≥ 75%. For the same compound, the mortality at 20 ppm in data set [2] was 90%; in data set [3], 100%. For the same compound, in data set [4], the chromatographic logP was 3.89.
For the compound `O=C(NCC(F)(F)c1ccc(-c2ccc(Cl)cc2)cc1Cl)c1ccccc1C(F)(F)F` [Example 1], the inhibition at 10 µg/mL in data set [1] (10 μg/ml, adult worms) is ≥ 75%. In addition, the mortality at 20 ppm in data set [2] and in data set [3] was 100% throughout. Further, the chromatographic logP in data set [4] worked out at 4.58.
Consider `O=C(NCC(F)(F)c1ccc(-c2ccccc2)cc1Cl)c1ccccc1C(F)(F)F` [Example 2], for which, in data set [1] (10 μg/ml, adult worms), the inhibition at 10 µg/mL is ≥ 75%. For the same compound, the mortality at 20 ppm in data set [2] and in data set [3] was 100% in each case. Besides, the chromatographic logP in data set [4] was found to be 4.05.
